Measured values reported in patent US20230233569A1 (Revolution Medicines, Inc., priority 2020, published 2023).
pIC50: −log10 of the molar value. Where “and” joins values, the source holds several entries; their conditions need not be identical. Equal values may be shown once. Read-outs that look alike come from different tables or passages of the source.

Assays:
Capan-1 (K-Ras G12V) = test: CellTiter-Glo cell viability assay, 5-day treatment; type: cell-based; conditions: Homo sapiens, CAPAN-1, 120 h, 5-day treatment; read-out: Capan-1 Cell Viability assay data (K-Ras G12V, IC50)
Summary of the method: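 Compounds were dispensed directly onto seeded cells and incubated for 5 days, then plates were equilibrated to room temperature for about 30 minutes before luminescence reading. Signals were expressed as percent of the mean DMSO control and fitted with a four-parameter logistic curve.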

KRAS G12C = KRAS G12C (Homo sapiens, UniProt P01116+P62937, G12C); test: Disruption of BRAF RBD interaction with Ras (FRET / MOA assay, with Cyclophilin A); type: biochemical
Description: (§1) This protocol may also be executed substituting other Ras proteins or nucleotides.
(§2) The purpose of this biochemical assay was to measure the ability of test compounds to facilitate ternary complex formation between a nucleotide-loaded K-Ras isoform and Cyclophilin A; the resulting ternary complex disrupts binding to a BRAF^RBD construct, inhibiting K-Ras signaling through a RAF effector. Data is reported as IC50 values.
(§3) Compound was present in plate wells as a 10-point 3-fold dilution series starting at a final concentration of 30 μM. After incubation at 25° C. for 3 hours, a mixture of Anti-His Eu-W1024 and anti-GST allophycocyanin was then added to assay sample wells at final concentrations of 10 nM and 50 nM, respectively, and the reaction incubated for an additional 1.5 hours. […] Compounds that facilitate disruption of a K-Ras:RAF complex were identified as those eliciting a decrease in the TR-FRET ratio relative to DMSO control wells.
as §2, with “BRAF^RBDD” for “BRAF^RBD”

KRAS G12D = KRAS G12D (Homo sapiens, UniProt P01116+P62937, G12D); test: as above; type: biochemical
Description: as §1, §2, §3
as §2, with “BRAF^RBDD” for “BRAF^RBD”

KRAS G12S = KRAS G12S (Homo sapiens, UniProt P01116+P62937, G12S); test: as above; type: biochemical
Description: as §1, §2, §3
as §2, with “BRAF^RBDD” for “BRAF^RBD”

KRAS G12V = KRAS G12V (Homo sapiens, UniProt P01116+P62937, G12V); test: as above; type: biochemical
Description: as §1, §2, §3
as §2, with “BRAF^RBDD” for “BRAF^RBD”

KRAS G13C = KRAS G13C (Homo sapiens, UniProt P01116+P62937, G13C); test: as above; type: biochemical
Description: as §1, §2, §3
as §2, with “BRAF^RBDD” for “BRAF^RBD”

KRAS G13D = KRAS G13D (Homo sapiens, UniProt P01116+P62937, G13D); test: as above; type: biochemical
Description: as §1, §2, §3
as §2, with “BRAF^RBDD” for “BRAF^RBD”

KRAS WT = KRAS WT (Homo sapiens, UniProt P01116+P62937); test: as above; type: biochemical
Description: as §1, §2, §3
as §2, with “BRAF^RBDD” for “BRAF^RBD”

NRAS G12C = NRAS G12C (Homo sapiens, UniProt P01111+P62937, G12C); test: as above; type: biochemical
Description: as §1, §2, §3
as §2, with “BRAF^RBDD” for “BRAF^RBD”

[1] = read-out: KRAS G12C FRET data, IC50
[2] = read-out: KRAS G12D FRET data, IC50
[3] = read-out: KRAS G12S FRET data, IC50
[4] = KRAS G12V, read-out: KRAS G12V FRET data IC50
[5] = read-out: KRAS G13C FRET data, IC50
[6] = KRAS G13D, read-out: KRAS G13D FRET data IC50
[7] = KRAS WT, read-out: KRAS WT FRET data IC50
[8] = NRAS G12C, read-out: NRAS G12C FRET data IC50

KRAS G12S, sequence (P01116 1-169 isoform P01116-2 G12S limits assumed): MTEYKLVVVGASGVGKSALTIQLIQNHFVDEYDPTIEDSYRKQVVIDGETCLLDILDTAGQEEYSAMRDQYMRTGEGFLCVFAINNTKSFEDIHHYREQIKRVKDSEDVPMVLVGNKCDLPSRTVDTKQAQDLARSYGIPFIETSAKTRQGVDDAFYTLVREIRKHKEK
KRAS G12S, sequence (P62937 whole entry): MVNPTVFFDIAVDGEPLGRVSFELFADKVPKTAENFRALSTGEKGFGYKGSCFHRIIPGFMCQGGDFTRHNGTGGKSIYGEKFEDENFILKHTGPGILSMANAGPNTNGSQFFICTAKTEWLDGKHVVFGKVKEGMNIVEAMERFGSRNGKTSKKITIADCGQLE
KRAS G13C, sequence (P01116 1-169 isoform P01116-2 G13C): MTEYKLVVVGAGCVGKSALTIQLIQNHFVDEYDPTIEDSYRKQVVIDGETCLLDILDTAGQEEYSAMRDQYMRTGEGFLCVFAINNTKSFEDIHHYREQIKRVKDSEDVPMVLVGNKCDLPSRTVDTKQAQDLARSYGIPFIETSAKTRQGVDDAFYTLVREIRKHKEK
KRAS G13C, sequence (P62937 whole entry): as the sequence (P62937 whole entry) above
KRAS G12C, sequence (P01116 1-169 isoform P01116-2 G12C): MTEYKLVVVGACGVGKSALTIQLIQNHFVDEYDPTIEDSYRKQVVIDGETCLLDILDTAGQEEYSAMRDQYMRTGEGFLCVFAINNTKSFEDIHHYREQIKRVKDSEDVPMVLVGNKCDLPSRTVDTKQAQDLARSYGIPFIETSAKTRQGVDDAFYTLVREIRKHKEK
KRAS G12C, sequence (P62937 whole entry): as the sequence (P62937 whole entry) above
KRAS G13D, sequence (P01116 1-169 isoform P01116-2 G13D limits assumed): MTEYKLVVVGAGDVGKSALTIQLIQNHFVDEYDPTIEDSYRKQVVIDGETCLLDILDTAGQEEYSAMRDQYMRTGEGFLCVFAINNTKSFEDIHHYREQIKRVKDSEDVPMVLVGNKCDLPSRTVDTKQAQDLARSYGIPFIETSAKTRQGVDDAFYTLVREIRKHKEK
KRAS G13D, sequence (P62937 whole entry): as the sequence (P62937 whole entry) above
KRAS G12V, sequence (P01116 1-169 isoform P01116-2 G12V limits assumed): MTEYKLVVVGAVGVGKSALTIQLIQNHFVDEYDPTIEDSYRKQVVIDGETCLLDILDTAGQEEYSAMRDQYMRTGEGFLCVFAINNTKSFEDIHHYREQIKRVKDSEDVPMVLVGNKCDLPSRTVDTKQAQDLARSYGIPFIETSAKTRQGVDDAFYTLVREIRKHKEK
KRAS G12V, sequence (P62937 whole entry): as the sequence (P62937 whole entry) above
KRAS G12D, sequence (P01116 1-169 isoform P01116-2 G12D limits assumed): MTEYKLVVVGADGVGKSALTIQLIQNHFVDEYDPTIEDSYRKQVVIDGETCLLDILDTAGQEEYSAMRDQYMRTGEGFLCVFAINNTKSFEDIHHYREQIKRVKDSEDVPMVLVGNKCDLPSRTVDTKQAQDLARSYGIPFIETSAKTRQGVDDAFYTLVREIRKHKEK
KRAS G12D, sequence (P62937 whole entry): as the sequence (P62937 whole entry) above
KRAS WT, sequence (P01116 1-169 isoform P01116-2 limits assumed): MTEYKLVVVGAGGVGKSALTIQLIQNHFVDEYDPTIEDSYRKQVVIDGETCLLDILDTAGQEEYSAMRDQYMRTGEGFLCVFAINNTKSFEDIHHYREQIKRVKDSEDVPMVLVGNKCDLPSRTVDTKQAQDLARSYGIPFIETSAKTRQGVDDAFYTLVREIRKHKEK
KRAS WT, sequence (P62937 whole entry): as the sequence (P62937 whole entry) above
NRAS G12C, sequence (P01111 whole entry G12C): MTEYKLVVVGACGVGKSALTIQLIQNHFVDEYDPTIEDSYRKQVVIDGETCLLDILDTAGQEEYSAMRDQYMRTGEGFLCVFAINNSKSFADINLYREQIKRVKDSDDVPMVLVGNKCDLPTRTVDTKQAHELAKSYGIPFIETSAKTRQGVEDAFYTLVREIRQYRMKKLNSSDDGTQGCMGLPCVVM
NRAS G12C, sequence (P62937 whole entry): as the sequence (P62937 whole entry) above

Row | Compound | pIC50 (Capan-1 (K-Ras G12V)) | pIC50 (KRAS G12C; [1]) | pIC50 (KRAS G12D; [2]) | pIC50 (KRAS G12S; [3]) | pIC50 (KRAS G12V; [4]) | pIC50 (KRAS G13C; [5]) | pIC50 (KRAS G13D; [6]) | pIC50 (KRAS WT; [7]) | pIC50 (NRAS G12C; [8]) | pIC50 (KRAS G12C; KRAS G12C FRET data, IC50) | pIC50 (KRAS G12D; KRAS G12D FRET data, IC50) | pIC50 (KRAS G12S; KRAS G12S FRET data, IC50) | pIC50 (KRAS G12V; KRAS G12V FRET data IC50, KRAS G12V) | pIC50 (KRAS G13C; KRAS G13C FRET data, IC50) | pIC50 (KRAS G13D; KRAS G13D FRET data IC50, KRAS G13D) | pIC50 (KRAS WT; KRAS WT FRET data IC50, KRAS WT) | pIC50 (NRAS G12C; NRAS G12C FRET data IC50, NRAS G12C)
1 | CCn1c(-c2cccnc2[C@H](C)OC)c2c3cc(ccc31)-c1cccc(c1)C[C@H](NC(=O)[C@H](C(C)C)N(C)C(=O)[C@H]1CCN(C(=O)CN(C)C)C1)C(=O)N1CCC[C@H](N1)C(=O)OCC(C)(C)C2 [Example A96] | 5.00 to 6.00 | 6.00 to 7.00 | 5.00 to 6.00 | 5.00 to 6.00 | 5.00 to 6.00 | 6.00 to 7.00 | 5.00 to 6.00 | 5.00 to 6.00 | 6.00 to 7.00 | – | – | – | – | – | – | – | –
2 | CCn1c(-c2cccnc2[C@H](C)OC)c2c3cc(ccc31)-c1csc(n1)C[C@H](NC(=O)[C@H](C(C)C)N(C)C(=O)[C@H]1CCN(C(=O)CN)C1)C(=O)N1CCC[C@H](N1)C(=O)OCC(C)(C)C2 [Example A106] | 5.00 to 6.00 | 6.00 to 7.00 | 6.00 to 7.00 | 5.00 to 6.00 | 5.00 to 6.00 | 6.00 to 7.00 | 5.00 to 6.00 | 6.00 to 7.00 | 6.00 to 7.00 | – | – | – | – | – | – | – | –
3 | C=CC(=O)N1CC[C@H](C(=O)Nc2ccccc2C(=O)N[C@H]2Cc3cc(O)cc(c3)-c3ccc4c(c3)c(c(-c3cnccc3COC)n4CC)CC(C)(C)COC(=O)[C@@H]3CCCN(N3)C2=O)C1 [Example A229] | 5.00 to 6.00 | 7.00 to 8.00 | 6.00 to 7.00 | 6.00 to 7.00 | 6.00 to 7.00 | 7.00 to 8.00 | 7.00 to 8.00 | 6.00 to 7.00 | 7.00 to 8.00 | – | – | – | – | – | – | – | –
4 | CCn1c(-c2cccnc2[C@H](C)OC)c2c3cc(ccc31)-c1cc(O)cc(c1)C[C@H](NC(=O)[C@H](C(C)C)N(C)C(=O)[C@H]1CCNC1)C(=O)N1CCC[C@H](N1)C(=O)OCC(C)(C)C2 [Example A4] | < 5.00 | – | – | – | – | – | – | – | – | 6.00 to 7.00 and 7.00 to 8.00 | 5.00 to 6.00 and 7.00 to 8.00 | 5.00 to 6.00 and 7.00 to 8.00 | 6.00 to 7.00 and < 5.00 | 6.00 to 7.00 and 7.00 to 8.00 | 6.00 to 7.00 and 7.00 to 8.00 | 5.00 to 6.00 and 7.00 to 8.00 | 5.00 to 6.00 and 7.00 to 8.00
5 | CCn1c(-c2cc(N3CCN(C)CC3)cnc2[C@H](C)OC)c2c3cc(ccc31)-c1csc(n1)C[C@H](NC(=O)[C@H](C(C)C)N(C)C(=O)N1CC(OC)C1)C(=O)N1CCC[C@H](N1)C(=O)OCC(C)(C)C2 [Example A466] | > 8.00 | – | – | – | – | – | – | – | – | – | – | – | – | – | – | – | –
6 | CCn1c(-c2cccnc2[C@H](C)OC)c2c3cc(ccc31)-c1cc(O)cc(c1)C[C@H](NS(=O)(=O)CC1OCCC13CNC3)C(=O)N1CCC[C@H](N1)C(=O)OCC(C)(C)C2 (mixture of isomers) [Example A187] | < 5.00 | < 5.00 | < 5.00 | < 5.00 | < 5.00 | < 5.00 | < 5.00 | < 5.00 | < 5.00 | – | – | – | – | – | – | – | –
7 | CCn1c(-c2cccnc2[C@H](C)OC)c2c3cc(ccc31)-c1csc(n1)C[C@H](NC(=O)[C@H](C(C)C)N1CCC3(CN(C)C3)C1=O)C(=O)N1CCC[C@H](N1)C(=O)OCC(C)(C)C2 [Example A222] | < 5.00 | – | – | – | < 5.00 | – | – | – | < 5.00 | – | – | – | – | – | – | – | –
8 | CCn1c(-c2cccnc2[C@H](C)OC)c2c3cc(ccc31)-c1csc(n1)C[C@H](NC(=O)[C@H](C(C)C)N(C)C(=O)N1CC(Cc3cnn(C)c3)C1)C(=O)N1CCC[C@H](N1)C(=O)OCC(C)(C)C2 [Example A500] | > 8.00 | – | – | – | – | – | – | – | – | – | – | – | – | – | – | – | –
